Data from paper PMC12472512, “Design, Synthesis, In Silico Docking, Multitarget Bioevaluation and Molecular Dynamic Simulation of Novel Pyrazolo[3,4-d]Pyrimidinone Derivatives as Potential In Vitro and In Vivo Anti-Inflammatory Agents” (Pharmaceuticals, 2025).
“And” between values parts separate entries of the source, which are not always exact repeats. Equal values may be shown once. “Also recorded” adds a separate entry of the source.

What was measured:
TNF-α = experiment: ELISA of serum TNF-α in carrageenan-treated mice; format: in vivo; settings: 50 mg/kg; carrageenan-treated mice at 3 h; compared to the control group
Procedure: To evaluate the anti-inflammatory mechanisms of these compounds, two key chemical mediators, TNF-α and IL-6, were assessed using enzyme-linked immunosorbent assay (ELISA).
(§1) All mice were sacrificed under anesthesia using ketamine/xylazine (50/15 mg/kg). Blood was collected for the ELISA assays to determine the levels of cytokines TNF-α and IL-6 using the Rat IL6 (Interleukin 6) ELISA Kit and Rat TNFα ELISA Kit (MyBioSource, San Diego, CA, USA), in accordance with the manufacturer’s instructions. The quantitative sandwich enzyme immunoassay technique is the fundamental principle of the TNF-α assay. A microplate was pre-coated with an antibody specific for TNF-α. Standards and samples were pipetted into the wells, and the immobilized antibody bound to any TNF-α that was present. A biotin-conjugated antibody that was specific for TNF-α was introduced to the wells after any unbound substances were removed. Horseradish peroxidase (HRP) conjugated with avidin was introduced to the wells subsequent to the cleaning process. After a wash to eliminate any unbound avidin–enzyme reagent, a substrate solution was introduced to the wells, and the color developed in proportion to the quantity of TNF-α bound in the initial step. The color development was halted, and the color intensity was quantified. Additionally, the Sandwich enzyme immunoassay is the test principle utilized for IL-6. The microtiter plates included in this preparation were pre-coated with an antibody that was specific to Rat IL6. A biotin-conjugated antibody specific to Rat IL6 was then added to the appropriate microtiter plate wells along with standards or samples. Subsequently, each microplate well was incubated with avidin conjugated to horseradish peroxidase (HRP). […] The addition of sulfuric acid solution terminated the enzyme–substrate reaction, and the color change was observed spectrophotometrically at a wavelength of 450 nm ± 10 nm. The concentration of Rat IL6 in the samples was subsequently determined by comparing the OD of the samples to the standard curve.
Blood was collected immediately following the decapitation of mice, performed in accordance with the institutional animal care and use committee (IACUC) guidelines. After decapitation, whole blood was allowed to flow freely and was collected directly into EDTA and heparinized tubes. The whole blood was centrifuged at 3000× g for 10 min at 4 °C, and the plasma was carefully collected and stored at –80 °C until further analysis.

IL-6 = experiment: ELISA of serum IL-6 in carrageenan-treated mice; format: in vivo; settings: 50 mg/kg; carrageenan-treated mice at 3 h
Procedure: Therefore, the anti-inflammatory activity of the tested compounds may hinge on their ability to suppress the pro-inflammatory TNF-α and IL-6 levels.
as §1, with “curve. […]” for “curve.”

[1] = tested on: carrageenan-induced paw edema; experiment: In vivo carrageenan-induced paw edema; settings: 50 mg/kg oral, mice
gastric mucosa = experiment: Histopathological examination of stomach sections (H&E)
COX-1 = molecular target: T1, COX-1 (Ovis aries, UniProt P05979); experiment: In vitro COX-1 inhibition, fluorescent inhibitor screening assay kit
T1 sequence (P05979 25-600): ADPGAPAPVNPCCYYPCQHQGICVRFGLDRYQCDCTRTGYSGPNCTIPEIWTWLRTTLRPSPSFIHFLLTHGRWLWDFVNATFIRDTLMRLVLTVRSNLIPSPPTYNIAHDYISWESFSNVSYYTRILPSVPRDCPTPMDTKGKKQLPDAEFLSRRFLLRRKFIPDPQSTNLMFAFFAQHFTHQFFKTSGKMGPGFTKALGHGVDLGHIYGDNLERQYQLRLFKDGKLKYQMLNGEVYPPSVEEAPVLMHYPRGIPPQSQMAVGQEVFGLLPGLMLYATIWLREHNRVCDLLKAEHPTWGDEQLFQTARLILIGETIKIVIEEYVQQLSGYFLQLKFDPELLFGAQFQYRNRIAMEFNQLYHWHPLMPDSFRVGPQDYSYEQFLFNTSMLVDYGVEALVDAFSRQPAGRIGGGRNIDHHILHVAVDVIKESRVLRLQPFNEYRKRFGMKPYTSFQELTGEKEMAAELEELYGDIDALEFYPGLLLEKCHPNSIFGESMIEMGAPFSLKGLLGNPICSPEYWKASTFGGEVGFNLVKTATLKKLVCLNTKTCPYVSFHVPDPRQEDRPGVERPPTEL
Procedure: (§2) Test compounds, dissolved in DMSO, and were pre-incubated with the enzymes at 37 °C for 5 min before initiating the reaction with 1 mM arachidonic acid under light-protected conditions. The fluorescence was measured using a multi-well spectrophotometer (fluorescence plate reader). […] The percentage inhibition was calculated by comparing the absorbance values of the compounds to the vehicle control.
(§3) This protocol utilizes a colorimetric assay to measure the peroxidase activity of Prostaglandin G/H
(§4) Synthase (COX enzyme). The COX enzyme converts Arachidonic Acid (AA) to Prostaglandin G2
(§5) (PGG2), which is then reduced to Prostaglandin H2 (PGH2) by the inherent peroxidase activity.
(§6) peroxidase reaction co-oxidizes a chromogen, such as N,N,N',N'-Tetramethyl-p-phenylenediamine
(§7) (TMPD), resulting in a colored product that can be measured spectrophotometrically at 590-630 nm.
(§8) inhibition of COX enzyme by a test compound reduces the formation of this colored product, allowing
(§9) for the calculation of percentage inhibition and subsequent IC50 values.
(§10) o Ovine COX-1 (purified, commercially available)
(§11) • Substrate: Arachidonic Acid (AA). Prepare a stock solution in ethanol. Note: AA is unstable;
(§12) aliquot and store under inert gas (e.g., Argon) at -80°C.
(§13) • Cofactor: Hemin. Prepare a stock solution in DMSO.
(§14) • Chromogen: N,N,N',N'-Tetramethyl-p-phenylenediamine (TMPD) dihydrochloride.
(§15) • Assay Buffer: 100 mM Tris-HCl buffer, pH 8.0. May contain 1-5 mM EDTA and 1-2 µM
Phenol (acts as a cofactor for COX-2).
(§16) • Solvents: Dimethyl Sulfoxide (DMSO), Ethanol (absolute).
(§17) consistent across all wells (typically ≤1% final concentration).
o Keep all dilutions on ice.
(§18) o COX-1 Working Solution: Dilute ovine COX-1 in ice-cold assay buffer to a final
(§19) concentration of ~50-100 U/mL. Add Hemin to a final concentration of 1 µM.
(§20) o Note: The exact enzyme units (U) required must be determined by a preliminary activity
(§21) test to ensure the reaction is linear and within the dynamic range of the assay.
(§22) Substrate/Chromogen Solution (Prepare Fresh):
(§23) o To a tube containing assay buffer, add TMPD to a final concentration of 0.2-0.5 mM.
(§24) o Add Arachidonic Acid to a final concentration of 100 µM. Vortex gently.
(§25) o Keep this solution protected from light and on ice until use.
(§26) Assay Setup (Performed in duplicate or triplicate)

human recombinant COX-2 = molecular target: T2, human recombinant COX-2 (Homo sapiens, UniProt P35354); experiment: In vitro COX-2 inhibition, fluorescent inhibitor screening assay kit
T2 sequence (P35354 18-604): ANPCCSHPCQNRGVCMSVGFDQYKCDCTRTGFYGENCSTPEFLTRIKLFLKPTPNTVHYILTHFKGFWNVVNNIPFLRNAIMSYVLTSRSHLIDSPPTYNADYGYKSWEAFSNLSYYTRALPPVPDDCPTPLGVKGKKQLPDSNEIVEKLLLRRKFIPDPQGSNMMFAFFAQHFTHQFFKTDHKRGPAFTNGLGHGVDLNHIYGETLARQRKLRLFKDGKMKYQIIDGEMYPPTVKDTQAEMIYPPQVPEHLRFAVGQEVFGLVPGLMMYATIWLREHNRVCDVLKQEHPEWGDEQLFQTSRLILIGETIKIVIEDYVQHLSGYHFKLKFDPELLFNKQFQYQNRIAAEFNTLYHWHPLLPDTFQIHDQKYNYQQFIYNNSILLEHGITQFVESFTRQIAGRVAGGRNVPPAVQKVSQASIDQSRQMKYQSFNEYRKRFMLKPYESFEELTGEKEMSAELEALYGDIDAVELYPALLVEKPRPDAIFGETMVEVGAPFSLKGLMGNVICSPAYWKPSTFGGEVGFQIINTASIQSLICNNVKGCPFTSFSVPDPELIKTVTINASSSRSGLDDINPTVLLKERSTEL
Procedure: as §2, §3, §4, §5, §6, §7, §8, §9, §10, §11, §12, §13, §14, §15
Phenol (acts as a cofactor for COX-2).
as §16, §17
o Keep all dilutions on ice.
as §18, §19, §20, §21, §22, §23, §24, §25, §26

COX-2 = tested on: COX-2; parameters: method as in PMID 19479756; settings: cited from earlier work

IC50 (COX-1) [µM] | COX1 %inh (COX-1; conc 0.01 (uM)) [%] | COX1 %inh (COX-1; conc 0.1 (uM)) [%] | COX1 %inh (COX-1; conc 1 (uM)) [%] | COX1 %inh (COX-1; conc 10 (uM)) [%] | COX1 %inh (COX-1; conc 100 (uM)) [%] | IC50 (human recombinant COX-2) [µM] | SI, in vitro COX-2 selectivity index (COX-1 IC50/COX-2 IC50) (human recombinant COX-2) | COX2 %inh (human recombinant COX-2; conc 0.1 (uM)) [%] | COX2 %inh (human recombinant COX-2; conc 1 (uM)) [%] | COX2 %inh (human recombinant COX-2; conc 10 (uM)) [%] | COX2 %inh (human recombinant COX-2; conc 100 (uM)) [%] | Compound | TNF-α levels in serum (TNF-α) | IL-6 levels in serum (IL-6) | Percentage of inhibition of carrageenan-induced paw edema ([1]; 1 h) [%] | IC50 (COX-2) [µM] | also measured
25.5 ± 0.86 | 0.72 | 5.18 | 15 | 31.4 | 74.9 | 0.266 ± 0.009 | 95.8 and 95.75 | -266 | -76 | 14.6 | 67.8 | O=C(Cn1cnc2c(cnn2-c2ccccc2)c1=O)N(c1ccccc1)c1ccccc1 [Compound 5k, 2-(4-Oxo-1-Phenyl-1,4-Dihydro-5H-Pyrazolo[3,4-d]Pyrimidin-5-yl)-N, N-Diphenyl Acetamide] | significantly reduced | significantly reduced | 31.46 |  | Percentage of inhibition of carrageenan-induced paw edema ([1]; 2 h): 44.88%; Percentage of inhibition of carrageenan-induced paw edema ([1]; 3 h, 50 mg/kg): 54.89%; histological structure of the gastric mucosa (gastric mucosa; stomach sections stained with H&E, 50 mg/kg): preserved gastric tissue integrity; also recorded: intact gastric tissue; also recorded: normal histological structure of the gastric mucosa; COX2 %inh (human recombinant COX-2; conc 0.01 (uM)): -394%
57.3 ± 1.93 | 0.27 | 6.51 | 12.3 | 24.6 | 69.2 | 2.34 ± 0.08 | 24.47 | -448 | -273 | -103 | 46.6 | CC(=NO)c1ccc(NC(=O)Cn2cnc3c(cnn3-c3ccccc3)c2=O)cc1 [Compound 5m, N-(4-(1-(Hydroxyimino)Ethyl)Phenyl)-2-(4-Oxo-1-Phenyl-1,4-Dihydro-5H-Pyrazolo[3,4-d]Pyrimidin-5-yl) Acetamide] | significantly reduced | significantly reduced | 3.43 |  | Percentage of inhibition of carrageenan-induced paw edema ([1]; 2 h, 50 mg/kg): 58.01%; Percentage of inhibition of carrageenan-induced paw edema ([1]; 3 h): 39.85%; histological structure of the gastric mucosa (gastric mucosa; stomach sections stained with H&E; 50 mg/kg): normal histological structure of the gastric mucosa
 |  |  |  |  |  |  |  |  |  |  |  | O=C(Nn1cnc2c(cnn2-c2ccccc2)c1=O)c1ccccc1 [Compound I] |  |  |  | 78.9 | 
 |  |  |  |  |  |  |  |  |  |  |  | O=C(NCc1ccccc1)c1nc2c(cnn2-c2ccccc2)c(=O)[nH]1 [II] |  |  |  | 23.8 | 
